Assay results reported in patent US20250145566A1, “PHENETHYLAMINE DERIVATIVES, COMPOSITIONS, AND METHODS OF USE” (Cybin IRL Limited, priority 2022, published 2025).
Entries after “also recorded” stand apart in the source; their conditions may differ. Where two headings read alike, the source gives them in different places.

How the values were obtained:
[1] = Rat liver microsomes (RLM) in vitro metabolism; assay type: in vitro ADME; conditions: Sprague-Dawley
Protocol: (§1) Rat Liver Microsomes (RLM). Male Sprague-Dawley rat liver microsomes were purchased from XenoTech. The reaction mixture, minus NADPH, was prepared as described in Table 10. The test compound was added into the reaction mixture at a final concentration of 1 μM. The control compound, testosterone, was run simultaneously with the test compound in a separate reaction. The reaction mixture (without cofactor) was equilibrated in a shaking water bath at 37° C. for 5 minutes. The reaction was initiated by the addition of the cofactor, and the mixture was incubated in a shaking water bath at 37° C. Aliquots (150 μL) were withdrawn at 0, 5, 10, 20, 30, 60, and for some assays at 120 minutes. Test compound and testosterone samples were immediately combined with 150 μL of ice-cold acetonitrile (ACN) containing 0.1% formic acid and internal standard to terminate the reaction. The samples were then mixed and centrifuged to precipitate proteins. All samples were assayed by LC-MS/MS using electrospray ionization. The peak area response ratio (PARR) of analyte to internal standard at each time point was compared to the PARR at time 0 to determine the percent remaining at each time point. Half-lives were calculated using GraphPad software, fitting to a single-phase exponential decay equation.
(§2) In a different series of reactions using RLM, a 10 mM stock solution of the test compound was prepared in DMSO. From this stock solution, an intermediate stock solution of 1 mM was prepared by diluting the compound in DMSO and from this intermediate stock solution, a working solution of 0.30 mM was prepared by diluting the compound in ACN:Water (50:50) as a cocktail of two compounds (i.e., 30 μL the non-deuterated and the deuterated compound in 40 μL diluent in 100 μL total volume). Following this, a master mix of rat liver microsomes (final concentration 0.5 mg/ml, Xenotech Cat #R1000; Lot #1610290) and 0.1 M potassium phosphate buffer was prepared and pre-incubated for 5 min at 37° C. The test compound mixture was then added to achieve a final test article concentration of 1 μM (for each analog if co-dosed; 0.2% DMSO); verapamil was used as a positive control. Subsequently, 10 mM NADPH prepared in 0.1 M potassium phosphate buffer was added (final concentration 1 mM) to initiate the reaction and samples were incubated at 37° C. for the desired time points (0, 5, 15, 30, 45, 60 min). At each time point, 40 μL of the samples were withdrawn and reactions were stopped using 200 μL chilled ACN containing 0.1% formic acid and internal standard carbamazepine (10 ng/mL). The samples were centrifuged, and the supernatant was analyzed by LC-MS/MS. The percent compound remaining at each time point was calculated with respect to that of the 0 min sample. The data were then analyzed to calculate half-life. Blank samples were prepared using DMSO (without the test compound).

5-HT2A receptor = biological target: T1, 5-HT2A receptor (Homo sapiens, UniProt P28223); experiment: 5-HT2A radioligand ([3H]LSD) competition binding; conditions: for affinity at 5-HT2A receptors, comparison in words: [3H]LSD competition binding
T1 construct: host or cells: HEK293 (ATCC CRL-1573), transient, membranes

Rat Liver Microsomes = experiment: Rat liver microsomes (RLM) in vitro metabolism; assay type: in vitro ADME; conditions: for disappearance in RLM, NADPH dependence: result in words
Protocol: as §1, §2

5-HT2A (h) = biological target: T2, 5-HT2A (h) (Homo sapiens, UniProt P28223); conditions: literature, single enantiomers, cited from earlier work; for EC50: read-out: Function 5-HT2A EC50
T2 construct: expressed in transfected cells; host or cells: HEK-293 cells

MAO-A = biological target: T3, MAO-A (Homo sapiens, UniProt P21397); experiment: Recombinant human MAO-A in vitro metabolism; assay type: in vitro ADME; conditions: for half-life at 1 µM: human, recombinant human MAO-A
T3 construct: purchased XenoTech (first series); Corning (second series) Corning 456283
T3 sequence (P21397 1-527): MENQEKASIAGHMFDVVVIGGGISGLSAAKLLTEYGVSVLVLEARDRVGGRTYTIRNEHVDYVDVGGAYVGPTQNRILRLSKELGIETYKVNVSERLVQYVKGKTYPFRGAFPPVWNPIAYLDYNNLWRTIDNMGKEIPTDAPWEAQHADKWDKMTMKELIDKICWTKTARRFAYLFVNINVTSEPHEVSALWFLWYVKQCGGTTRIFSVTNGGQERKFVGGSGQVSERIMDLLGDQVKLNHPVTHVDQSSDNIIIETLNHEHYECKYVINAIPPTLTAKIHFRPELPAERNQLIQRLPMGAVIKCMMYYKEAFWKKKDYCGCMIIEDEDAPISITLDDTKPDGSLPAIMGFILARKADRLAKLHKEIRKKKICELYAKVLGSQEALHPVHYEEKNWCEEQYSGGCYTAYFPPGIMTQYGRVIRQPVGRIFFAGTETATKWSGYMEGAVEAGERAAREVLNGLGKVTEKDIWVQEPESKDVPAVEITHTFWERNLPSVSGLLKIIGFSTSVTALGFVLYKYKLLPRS
Protocol: Recombinant human MAO-A. hrMAO-A and MAO control were purchased from XenoTech. The reaction mixture was prepared as described in Table 11. The test compound was added into the reaction mixture at a final concentration of 1 μM. The positive control kynuramine (25 μM) was run simultaneously with the test compound in a separate reaction. The reaction mixture (without test compounds or kynuramine) was equilibrated in a shaking water bath at 37° C. for 5 minutes. The reaction was initiated by the addition of the test compound or kynuramine, and the mixture was incubated in a shaking water bath at 37° C. Aliquots (150 μL) of the test compound reaction mixture were withdrawn at 0, 5, 10, 20, 30, 60, and for some assays at 120 minutes. Aliquots (150 μL) of the positive control reaction mixture were withdrawn at 0 and 30 minutes. Test compound and kynuramine samples were immediately combined with 150 μL of ice-cold 100% acetonitrile containing 0.1% formic acid and internal standard (0.2 μM metoprolol) to terminate the reaction. The samples were then mixed and centrifuged to precipitate proteins. All samples were assayed by LC-MS/MS. The peak area response ratio (PARR) of analyte to internal standard at each time point was compared to the PARR at time 0 to determine the percent remaining at each time point. Half-lives were calculated using GraphPad software, fitting to a single-phase exponential decay equation.
(§3) In a different series of reactions using human MAO-A and MAO-B, a 10 mM stock solution of the test compound was prepared in DMSO. From this stock solution, an intermediate stock solution of 1 mM was prepared by diluting the compound in DMSO and from this intermediate stock solution, a working solution of 0.30 mM was prepared by diluting the compound in ACN:Water (50:50) as cocktail of 2 compounds (30 μL each compound in 40 μL diluent for 100 μL). Following this, a master mix of 0.1 M potassium phosphate buffer and test compound mixture i.e., the non-deuterated and the deuterated analog, were prepared to achieve final drug concentration of 1 μM (0.2% DMSO) for the required number of reactions. The aforementioned master mix was pre-incubated at 37° C. for 5 min. To this master mix, MAO-A (final protein conc. 0.1 mg/mL; Corning Cat #456283; Lot #1173003) or MAO-B (final protein conc. 0.1 mg/mL; Corning Cat #456284; Lot #0318001) was added to initiate the reaction. The samples were then incubated at 37° C. for the desired time points. At each time point (0, 5, 15, 30, 45, 60), 40 μL of the samples were withdrawn and reactions were stopped using 200 μL chilled ACN containing 0.1% formic acid and internal standard Carbamazepine (10 ng/mL). The samples were centrifuged, and the supernatant was analyzed by LC-MS/MS. The percent compound remaining at each time point was calculated with respect to that of the 0 min sample. The data were then analyzed to calculate half-life and intrinsic clearance (CLint). Blank samples were prepared using DMSO (without the test compound).

MAO-B = biological target: T4, MAO-B (Homo sapiens, UniProt P27338); experiment: human MAO-B in vitro metabolism; assay type: in vitro ADME; conditions: human MAO-B enzyme (Corning), test compound 1 μM, read-out: MAO-B t1/2
T4 construct: purchased Corning 456284
T4 sequence (P27338 1-520): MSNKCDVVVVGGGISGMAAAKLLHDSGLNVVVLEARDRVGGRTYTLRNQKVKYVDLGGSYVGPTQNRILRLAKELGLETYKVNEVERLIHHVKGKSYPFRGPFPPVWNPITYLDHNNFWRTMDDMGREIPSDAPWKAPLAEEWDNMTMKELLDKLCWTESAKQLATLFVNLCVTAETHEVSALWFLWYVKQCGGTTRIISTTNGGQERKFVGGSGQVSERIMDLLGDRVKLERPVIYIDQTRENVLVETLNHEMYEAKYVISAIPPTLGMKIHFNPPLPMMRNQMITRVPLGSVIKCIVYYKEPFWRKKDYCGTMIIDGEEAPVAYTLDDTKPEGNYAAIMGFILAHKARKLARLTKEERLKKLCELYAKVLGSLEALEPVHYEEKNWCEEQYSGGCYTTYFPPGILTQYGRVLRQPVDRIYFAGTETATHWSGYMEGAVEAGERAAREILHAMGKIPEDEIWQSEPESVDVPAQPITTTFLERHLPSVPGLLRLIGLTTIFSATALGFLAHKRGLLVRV
Protocol: as §3

[2] = rat liver microsomes (Table 18), read-out: RLM t1/2
[3] = rat liver microsomes (Table 17), read-out: RLM t1/2
[4] = pH 7.4, rat liver microsomes, test compound 1 μM, * = apparent NADPH independent reaction, read-out: RLM t1/2
[5] = human recombinant MAO-A, test compound 1 μM, read-out: MAO-A t1/2
[6] = 1 μM test compound, read-out: half-life, MAO-A metabolism

T2 sequence (P28223 whole entry): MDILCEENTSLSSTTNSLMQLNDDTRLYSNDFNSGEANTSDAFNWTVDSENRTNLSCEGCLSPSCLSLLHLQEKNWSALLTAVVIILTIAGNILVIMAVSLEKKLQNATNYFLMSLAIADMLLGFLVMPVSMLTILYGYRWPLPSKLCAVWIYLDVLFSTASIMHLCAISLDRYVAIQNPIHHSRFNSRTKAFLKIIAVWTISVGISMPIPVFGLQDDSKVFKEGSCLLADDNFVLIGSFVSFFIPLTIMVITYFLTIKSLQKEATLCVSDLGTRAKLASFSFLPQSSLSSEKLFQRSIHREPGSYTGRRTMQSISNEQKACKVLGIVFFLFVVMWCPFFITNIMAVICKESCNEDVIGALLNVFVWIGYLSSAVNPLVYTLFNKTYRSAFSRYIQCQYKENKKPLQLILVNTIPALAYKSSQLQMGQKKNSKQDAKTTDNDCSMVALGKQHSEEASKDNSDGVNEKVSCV
T1 sequence (P28223 whole entry): as above

COc1cc(SC(F)(F)F)c(OC)cc1CC(C)N (racemic) [IV-1 (racemic)]
half-life at 1 µM [1, 2]: 40.7 min | Ki (5-HT2A receptor; agonist radioligand: [3H]LSD (Table 18), read-out: 5HT2A Ki): 0.007 µM

COc1cc(SC(F)(F)F)c(OC)cc1CC(C)N (racemic) [IV-1, 1-(2,5-dimethoxy-4-((trifluoromethyl)thio)phenyl)propan-2-amine]
stability / half-life in RLMs, comparison in words (Rat Liver Microsomes; compared with Reference Compound 2): greater stability in RLMs than Reference Compound 2 | affinity at 5-HT2A receptors, comparison in words (5-HT2A receptor): affinity at 5-HT2A receptors equal or superior to both enantiomers of Reference Compound 2

C[C@H](N)Cc1ccc2c(c1)OCO2 [S-MDA]
Function 5-HT2A EMAX (5-HT2A (h)): EMAX = 89% | EC50 (5-HT2A (h)): 18.2 µM

COc1cc(C(F)(F)F)c(OC)cc1CCN [Reference Compound 4, 2-(2,5-dimethoxy-4-(trifluoromethyl)phenyl)ethan-1-amine, reference compound]
half-life at 1 µM [1, 3]: 16.6 min | Ki (5-HT2A receptor): 0.0034 µM

[2H]C1([2H])Oc2cc(CC(C)N)ccc2S1 (stereo not shown) [II-17, 1-(benzo[d][1,3]oxathiol-6-yl-2,2-d2)propan-2-amine]
half-life at 1 µM [1, 4]: 12.6 min | half-life at 1 µM (MAO-A; [5]): > 120 min | stability in the presence of MAO-A (MAO-A; result in words): stable | half-life at 1 µM (MAO-B): 892 min

C[C@@H](N)Cc1ccc2c(c1)OCO2 [R-MDA]
Function 5-HT2A EMAX (5-HT2A (h)): EMAX = 95% | EC50 (5-HT2A (h)): 5.6 µM

COc1cc(SC)c(OC)cc1C[C@H](C)N [Reference Compound 2 (S)]
half-life at 1 µM [1, 3]: 6.34 min | Ki (5-HT2A receptor): 0.018 µM | half-life at 1 µM (MAO-A; Table 18, read-out: MAO-A t1/2): > 120 min

[2H]C1([2H])Oc2ccc(CCN)cc2O1 [II-11, 2-(benzo[d][1,3]dioxol-5-yl-2,2-d2)ethan-1-amine]
half-life at 1 µM [1, 4]: < 5 min | disappearance in RLM, NADPH dependence (Rat Liver Microsomes): NADPH-independent | half-life at 1 µM (MAO-A; [6]): ≤ 8 min | half-life at 1 µM (MAO-A; [5]): 7.97 min | half-life at 1 µM (MAO-B): < 5 min

[2H]C([2H])([2H])Oc1cc(SC)c(OC([2H])([2H])[2H])cc1C[C@H](C)N [IV-9 (S)]
half-life at 1 µM [1, 2]: 6.3 min | Ki (5-HT2A receptor): 0.056 µM | half-life at 1 µM (MAO-A; Table 18, read-out: MAO-A t1/2): > 120 min

[2H]C1([2H])Oc2cc(CCN)ccc2S1 [II-15, 2-(benzo[d][1,3]oxathiol-6-yl-2,2-d2)ethan-1-amine]
half-life at 1 µM [1, 4]: < 5 min | half-life at 1 µM (MAO-A; [6]): ≤ 8 min | half-life at 1 µM (MAO-A; [5]): 4.42 min | half-life at 1 µM (MAO-B): < 5 min

COc1cc(CCN)cc(OC)c1SC(F)(F)F [III-5, 2-(3,5-dimethoxy-4-((trifluoromethyl)thio)phenyl)ethan-1-amine]
half-life at 1 µM ([1]; rat, rat liver microsomes, 1 μM test compound, read-out: half-life in the presence of rat liver microsome): > 120 min | RLM t1/2 (Rat Liver Microsomes; rat liver microsomes (Table 17)): >120 min | Ki (5-HT2A receptor): 0.0016 µM | affinity at 5-HT2A receptors, comparison in words (5-HT2A receptor): superior affinity at 5-HT2A receptors compared to Reference Compound 1; also recorded: affinity equal to or better than classic 2,4,5-substituted 5-HT2A agonists, such as Reference Compounds 2-4 | Ki (5-HT2A receptor; read-out: 5HT2A Ki at the low-affinity inactive state, [3H]LSD, two-site fit): 0.676 µM

COc1cc(SC)c(OC)cc1CCN [Reference Compound 3, 2-(2,5-dimethoxy-4-(methylthio)phenyl)ethan-1-amine, reference compound]
half-life at 1 µM [1, 3]: 6.09 min

[2H]C([2H])([2H])Oc1cc(SC)c(OC([2H])([2H])[2H])cc1C[C@@H](C)N [IV-9 (R)]
half-life at 1 µM [1, 2]: 16.6 min | Ki (5-HT2A receptor): 0.026 µM | half-life at 1 µM (MAO-A; Table 18, read-out: MAO-A t1/2): > 120 min

NCCc1ccc2c(c1)OCO2 [Reference Compound 5, 3,4-Methylenedioxyphenethylamine, reference compound]
half-life at 1 µM [1, 4]: < 5 min | disappearance in RLM, NADPH dependence (Rat Liver Microsomes): NADPH-independent | half-life at 1 µM (MAO-A; [6]): ≤ 8 min | half-life at 1 µM (MAO-A; [5]): 8.34 min | half-life at 1 µM (MAO-B): 7.91 min

COc1cc(SC)c(OC)cc1C[C@@H](C)N [Reference Compound 2 (R)]
half-life at 1 µM [1, 3]: 16 min | Ki (5-HT2A receptor): 0.007 µM | half-life at 1 µM (MAO-A; Table 18, read-out: MAO-A t1/2): > 120 min
